Earlier results on one compound are cited in article PMC6611711 (Molecular cancer therapeutics, 2018).

Data set [1] deals with panel of cancer cell lines. To be noted: inhibition of choline kinase alpha (CKα).
The subject of a further data set is tumor xenograft. Particulars: mice.

Regarding `CN(C)c1cc[n+](CCCCCCCCCCCC[n+]2ccc(N(C)C)cc2)cc1.[Br-].[Br-]` [ICL-CCIC-0019], the “Growth of a panel of cancer cell lines” value in data set [1] is “suppressed growth of a panel of cancer cell lines”. In addition, the Tumor xenograft growth result in the data set on tumor xenograft was “inhibited tumor xenograft growth in mice”.
